US20230286970A1, “NOVEL OXADIAZOLE-BASED SELECTIVE HDAC6 INHIBITORS” (ITALFARMACO S.P.A., priority 2020, published 2023)

Tests used:
[1] = molecular target: recombinant human HDAC6 (Homo sapiens (Human), UniProt Q9UBN7); test: Enzymatic screening, HDAC6 inhibition (fluorogenic FdL_G substrate); format: biochemical
Procedure, shortened: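 Enzyme was preincubated with compound (8 doses, triplicate, 1% DMSO) in 25 mM Tris-HCl pH 8, 130 mM NaCl, 0.05% Tween-20, 10% glycerol, with BSA. A FLUOR DE LYS-Green substrate was then added, and fluorescence was read after developer plus 2 μM TSA.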

[2] = molecular target: recombinant human HDAC1 (Homo sapiens (Human), UniProt Q13547); test: Enzymatic screening, HDAC1 inhibition (fluorogenic FdL_G substrate); format: biochemical
Chain of recombinant human HDAC1 (Q13547 whole entry): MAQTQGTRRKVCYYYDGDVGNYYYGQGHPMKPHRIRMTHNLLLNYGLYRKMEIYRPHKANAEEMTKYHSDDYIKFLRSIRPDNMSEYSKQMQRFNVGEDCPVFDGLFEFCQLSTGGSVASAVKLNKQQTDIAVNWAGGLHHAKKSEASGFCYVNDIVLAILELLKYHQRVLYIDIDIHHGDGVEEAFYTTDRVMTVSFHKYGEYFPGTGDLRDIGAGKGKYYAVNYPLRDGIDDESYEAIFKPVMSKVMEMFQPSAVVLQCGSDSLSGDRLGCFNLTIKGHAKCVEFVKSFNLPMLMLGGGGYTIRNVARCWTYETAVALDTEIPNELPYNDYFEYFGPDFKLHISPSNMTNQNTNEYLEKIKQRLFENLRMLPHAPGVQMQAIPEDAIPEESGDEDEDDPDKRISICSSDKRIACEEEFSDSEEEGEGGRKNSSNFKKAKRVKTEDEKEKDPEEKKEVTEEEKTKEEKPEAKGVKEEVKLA
Procedure, shortened: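 Recombinant human HDAC1 inhibition was measured fluorometrically using the FLUOR DE LYS-Green (FdL_G) substrate. Compounds at 8 doses (1% DMSO final) in Tris-HCl pH 8 buffer with NaCl, Tween-20 and glycerol were preincubated in triplicate with enzyme and 1 mg/mL BSA, then given substrate. Developer I plus 2 μM TSA was added, and fluorescence read after 25 minutes in the dark.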

[3] = molecular target: HDAC2 (Homo sapiens (Human), UniProt Q92769); test: Enzymatic screening, HDAC2 inhibition; format: biochemical
Chain of HDAC2 (Q92769 whole entry, canonical isoform): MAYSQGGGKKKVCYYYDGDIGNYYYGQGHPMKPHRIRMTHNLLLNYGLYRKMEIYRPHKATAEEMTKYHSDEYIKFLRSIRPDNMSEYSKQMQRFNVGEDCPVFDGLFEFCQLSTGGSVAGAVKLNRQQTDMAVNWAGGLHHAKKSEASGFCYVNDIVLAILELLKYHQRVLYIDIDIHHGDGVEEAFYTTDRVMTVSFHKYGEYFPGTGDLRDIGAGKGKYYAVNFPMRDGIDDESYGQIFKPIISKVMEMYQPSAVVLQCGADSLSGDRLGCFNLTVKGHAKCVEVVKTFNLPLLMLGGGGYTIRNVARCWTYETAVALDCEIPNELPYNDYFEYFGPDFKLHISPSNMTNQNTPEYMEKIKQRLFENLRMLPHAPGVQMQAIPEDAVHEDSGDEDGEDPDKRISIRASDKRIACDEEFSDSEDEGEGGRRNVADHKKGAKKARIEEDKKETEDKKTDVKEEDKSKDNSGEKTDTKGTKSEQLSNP
Procedure: (§1) For each test compound, 100× concentrated DMSO solutions at 8 doses were prepared and then diluted in assay buffer (25 mM Tris-HCl, pH 8, 130 mM NaCl, 0.05% Tween-20, 10% Glycerol) to obtain 5× concentrated solutions in relation to the final concentrations (typical final concentration range—6.4-200000 nM or 0.18-50000 nM, final DMSO content—1%). Then 10 μL solution of each test compound concentration were placed on a 96-well plate in triplicate and 15 μL of 3.33× concentrated enzyme solution in the assay buffer containing 3.33× concentrated BSA (final BSA concentration—2 mg/mL for HDAC4, HDAC5 and HDAC9 or 1 mg/mL for other isoforms) and in the case of HDAC6-3.33× concentrated TCEP (final TCEP concentration—200 μM) were added to each well. After a period of preincubation (incubation times and temperatures vary for different isoforms and are shown in table 1) 25 μL of solution containing the substrate were added. As substrate, FLUOR DE LYS® deacetylase substrate (Enzo Life Sciences, cat: BML-KI104, FdL), FLUOR DE LYS®-Green substrate (Enzo Life Sciences, cat: BML-KI572, FdL_G) or Boc-Lys(Tfa)-AMC (Bachem, cat: 4060676.005, Tfal)—2× concentrated solution in assay buffer were used. Following a reaction period (reaction times and temperatures vary for different isoforms and are reported in Table 1), 50 μL of the development solution consisting of concentrate FLUOR DE LYS® developer I (Enzo Life Sciences, ca: BML-KI105), diluted 200 times in buffer (50 mM Tris-HCl, pH 8, 137 mM NaCl, 2.7 mM KCl, 1 mM MgCl2) plus 2 μM TSA was added and, after 25 minutes at room temperature in the dark, using the Victor 1420 Multilabel Counter Perkin Elmer Wallac instrument, the fluorescence reading was carried out.

[4] = molecular target: HDAC3 (Homo sapiens (Human), UniProt O15379); test: Enzymatic screening, HDAC3 inhibition; format: biochemical
Chain of HDAC3 (O15379 whole entry): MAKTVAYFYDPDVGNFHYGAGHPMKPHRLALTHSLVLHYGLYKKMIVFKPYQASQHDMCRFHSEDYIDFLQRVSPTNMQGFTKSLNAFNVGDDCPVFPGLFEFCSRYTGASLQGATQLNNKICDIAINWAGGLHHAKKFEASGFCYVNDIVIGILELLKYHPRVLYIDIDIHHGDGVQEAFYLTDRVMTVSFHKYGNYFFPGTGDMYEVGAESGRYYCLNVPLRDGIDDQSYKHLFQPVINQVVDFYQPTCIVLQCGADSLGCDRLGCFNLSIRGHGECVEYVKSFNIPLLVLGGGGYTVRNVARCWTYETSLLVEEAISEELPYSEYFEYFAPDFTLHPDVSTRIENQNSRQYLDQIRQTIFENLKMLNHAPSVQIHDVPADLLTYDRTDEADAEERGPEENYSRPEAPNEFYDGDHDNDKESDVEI
Chain of HDAC3 (Q9Y618 395-489 partner): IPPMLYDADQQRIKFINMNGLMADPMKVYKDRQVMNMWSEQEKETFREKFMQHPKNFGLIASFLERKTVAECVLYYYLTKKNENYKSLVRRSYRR
Procedure: as §1

[5] = molecular target: HDAC4 (Homo sapiens (Human), UniProt P56524); test: Enzymatic screening, HDAC4 inhibition; format: biochemical
Chain of HDAC4 (P56524 whole entry): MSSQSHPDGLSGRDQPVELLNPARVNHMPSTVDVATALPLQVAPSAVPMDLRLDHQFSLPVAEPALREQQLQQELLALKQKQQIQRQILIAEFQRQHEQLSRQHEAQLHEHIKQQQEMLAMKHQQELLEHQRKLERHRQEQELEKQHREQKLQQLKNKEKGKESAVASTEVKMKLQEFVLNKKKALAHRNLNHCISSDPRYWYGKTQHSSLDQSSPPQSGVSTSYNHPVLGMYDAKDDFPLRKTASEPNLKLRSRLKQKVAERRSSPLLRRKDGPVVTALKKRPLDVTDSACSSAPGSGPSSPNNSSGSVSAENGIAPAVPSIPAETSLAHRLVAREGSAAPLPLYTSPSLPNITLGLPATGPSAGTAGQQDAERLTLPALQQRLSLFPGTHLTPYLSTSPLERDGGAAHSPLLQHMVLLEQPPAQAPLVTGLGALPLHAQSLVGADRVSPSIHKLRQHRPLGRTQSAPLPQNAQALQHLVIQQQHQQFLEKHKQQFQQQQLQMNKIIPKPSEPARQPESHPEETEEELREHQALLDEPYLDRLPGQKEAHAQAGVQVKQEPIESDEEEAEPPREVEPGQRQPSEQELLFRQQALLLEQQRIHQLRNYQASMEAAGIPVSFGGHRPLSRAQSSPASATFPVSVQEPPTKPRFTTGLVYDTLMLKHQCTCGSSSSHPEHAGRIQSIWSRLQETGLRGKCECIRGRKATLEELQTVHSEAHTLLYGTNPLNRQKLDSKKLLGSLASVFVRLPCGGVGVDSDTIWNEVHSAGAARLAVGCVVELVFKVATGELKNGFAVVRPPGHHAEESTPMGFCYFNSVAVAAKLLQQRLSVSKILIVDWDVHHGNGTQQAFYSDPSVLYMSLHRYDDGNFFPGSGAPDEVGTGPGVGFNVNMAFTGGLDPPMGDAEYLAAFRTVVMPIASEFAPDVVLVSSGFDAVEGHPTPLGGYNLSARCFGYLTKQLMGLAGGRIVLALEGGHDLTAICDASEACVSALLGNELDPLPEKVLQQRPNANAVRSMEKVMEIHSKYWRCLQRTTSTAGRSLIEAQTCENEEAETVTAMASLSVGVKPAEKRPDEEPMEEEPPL
Procedure: as §1

[6] = molecular target: HDAC5 (Homo sapiens (Human), UniProt Q9UQL6); test: Enzymatic screening, HDAC5 inhibition; format: biochemical
Procedure: as §1

[7] = molecular target: HDAC7 (Homo sapiens (Human), UniProt Q8WUI4); test: Enzymatic screening, HDAC7 inhibition; format: biochemical
Procedure: as §1

[8] = molecular target: HDAC8 (Homo sapiens (Human), UniProt Q9BY41); test: Enzymatic screening, HDAC8 inhibition; format: biochemical
Chain of HDAC8 (Q9BY41 whole entry): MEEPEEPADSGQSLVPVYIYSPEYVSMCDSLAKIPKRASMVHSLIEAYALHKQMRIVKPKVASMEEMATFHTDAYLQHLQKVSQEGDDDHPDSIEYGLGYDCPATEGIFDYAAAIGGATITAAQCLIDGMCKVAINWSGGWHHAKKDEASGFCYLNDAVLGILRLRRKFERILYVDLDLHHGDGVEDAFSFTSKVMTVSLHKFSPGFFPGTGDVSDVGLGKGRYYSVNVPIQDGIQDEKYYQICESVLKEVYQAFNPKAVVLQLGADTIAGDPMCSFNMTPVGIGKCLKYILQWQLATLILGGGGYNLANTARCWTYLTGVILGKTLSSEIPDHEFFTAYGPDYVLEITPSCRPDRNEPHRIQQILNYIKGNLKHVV
Procedure: as §1

[9] = molecular target: HDAC9 (Homo sapiens (Human), UniProt Q9UKV0); test: Enzymatic screening, HDAC9 inhibition; format: biochemical
Chain of HDAC9 (Q9UKV0 whole entry): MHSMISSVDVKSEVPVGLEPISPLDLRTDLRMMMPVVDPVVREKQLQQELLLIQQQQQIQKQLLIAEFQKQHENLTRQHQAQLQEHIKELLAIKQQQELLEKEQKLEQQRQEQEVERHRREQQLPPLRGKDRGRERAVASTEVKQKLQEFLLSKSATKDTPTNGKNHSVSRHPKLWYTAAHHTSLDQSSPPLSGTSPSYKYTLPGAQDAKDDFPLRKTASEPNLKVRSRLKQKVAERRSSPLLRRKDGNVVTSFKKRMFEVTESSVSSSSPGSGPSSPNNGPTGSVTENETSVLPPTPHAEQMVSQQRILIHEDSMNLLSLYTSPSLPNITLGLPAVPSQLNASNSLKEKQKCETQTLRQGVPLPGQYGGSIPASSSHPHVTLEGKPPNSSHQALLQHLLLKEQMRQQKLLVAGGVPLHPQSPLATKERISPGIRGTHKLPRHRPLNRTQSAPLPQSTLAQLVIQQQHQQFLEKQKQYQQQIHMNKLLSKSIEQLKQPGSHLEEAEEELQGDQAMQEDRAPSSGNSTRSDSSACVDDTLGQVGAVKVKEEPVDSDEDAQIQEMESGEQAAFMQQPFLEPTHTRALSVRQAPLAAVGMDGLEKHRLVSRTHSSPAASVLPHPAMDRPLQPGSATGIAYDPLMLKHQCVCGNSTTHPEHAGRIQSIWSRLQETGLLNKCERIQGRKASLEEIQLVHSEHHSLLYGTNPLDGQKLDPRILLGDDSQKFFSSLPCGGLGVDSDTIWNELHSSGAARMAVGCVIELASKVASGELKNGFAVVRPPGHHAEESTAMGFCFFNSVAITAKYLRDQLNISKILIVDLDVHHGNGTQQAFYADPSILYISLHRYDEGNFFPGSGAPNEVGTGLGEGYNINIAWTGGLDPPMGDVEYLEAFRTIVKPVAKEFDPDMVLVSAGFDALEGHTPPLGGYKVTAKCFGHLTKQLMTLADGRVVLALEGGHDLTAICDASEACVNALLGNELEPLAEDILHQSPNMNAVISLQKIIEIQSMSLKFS
Procedure: as §1

[10] = molecular target: HDAC10 (Homo sapiens (Human), UniProt Q969S8); test: Enzymatic screening, HDAC10 inhibition; format: biochemical
Chain of HDAC10 (Q969S8 whole entry): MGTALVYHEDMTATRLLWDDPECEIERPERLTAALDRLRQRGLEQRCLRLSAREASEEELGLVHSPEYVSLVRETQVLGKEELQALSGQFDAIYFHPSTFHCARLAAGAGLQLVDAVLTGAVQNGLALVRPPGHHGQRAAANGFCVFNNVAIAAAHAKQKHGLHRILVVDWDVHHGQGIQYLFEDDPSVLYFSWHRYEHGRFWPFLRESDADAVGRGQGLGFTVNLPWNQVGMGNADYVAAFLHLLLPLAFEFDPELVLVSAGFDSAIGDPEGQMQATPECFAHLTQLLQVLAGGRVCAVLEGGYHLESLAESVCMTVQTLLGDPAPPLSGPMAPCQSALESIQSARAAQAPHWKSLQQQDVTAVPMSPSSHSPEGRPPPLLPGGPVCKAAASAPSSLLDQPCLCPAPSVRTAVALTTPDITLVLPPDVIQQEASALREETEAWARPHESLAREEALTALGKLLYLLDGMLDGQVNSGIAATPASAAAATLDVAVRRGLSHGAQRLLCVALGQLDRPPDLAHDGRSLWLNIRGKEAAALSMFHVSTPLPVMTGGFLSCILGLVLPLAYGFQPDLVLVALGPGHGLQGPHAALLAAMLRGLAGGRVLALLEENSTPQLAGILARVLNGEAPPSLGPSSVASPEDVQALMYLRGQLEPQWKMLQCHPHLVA
Procedure: as §1

[11] = molecular target: HDAC11 (Homo sapiens (Human), UniProt Q96DB2); test: Enzymatic screening, HDAC11 inhibition; format: biochemical
Chain of HDAC11 (Q96DB2 whole entry): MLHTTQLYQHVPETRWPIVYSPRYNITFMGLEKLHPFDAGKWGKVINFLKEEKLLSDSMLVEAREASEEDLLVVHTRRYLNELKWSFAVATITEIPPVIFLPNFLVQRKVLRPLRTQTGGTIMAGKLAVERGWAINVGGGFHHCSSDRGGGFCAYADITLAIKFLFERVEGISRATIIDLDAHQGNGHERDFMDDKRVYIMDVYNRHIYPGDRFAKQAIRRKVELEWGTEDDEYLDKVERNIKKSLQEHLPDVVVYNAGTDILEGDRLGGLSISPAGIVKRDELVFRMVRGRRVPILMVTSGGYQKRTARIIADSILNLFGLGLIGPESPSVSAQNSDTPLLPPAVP
Procedure: as §1

[12] = test system: α-tubulin acetylation in 697 cell line; test: In vitro α-tubulin acetylation in 697 cell line (ELISA); format: cell-based; conditions: 16 hours, read-out: fold increase @ 1 uM TubAc (ratio of acetylated tubulin and total tubulin towards control)
Procedure: The in vitro α-tubulin acetylation determination was evaluated on B 697 promyelocytic cell line.
The test molecules were diluted from 20 mM stock solution in DMSO with RPMI 10% FCS+0.01% DMSO medium at 20× concentration compared to the final concentration, added to the cells (15×10^6 cells in a total volume of 30 mL in RPMI medium 10% FCS+0.01% DMSO) to obtain the final concentrations of 1000, 333, 111, 37 nM and incubated at 37° C., 5% CO2 for 16 hours.
At the end of the incubation period, 5×10^6 cells were taken from each sample, centrifuged for 5 minutes at 1100 rpm and washed in 0.9% NaCl at 4° C. The resulting pellet was lysed by treating at 4° C. for 30 minutes with 150 μl of Complete Lysis-M buffer containing protease inhibitors (Complete Lysis-M Roche+Complete Tablets, Mini Easypack, cat: 4719956001) and phosphatase inhibitor cocktails (PhosStop Easypack, Roche, cat: 4906837001), then centrifuged 10 minutes at 14,000 rpm (20817×g). 0.3 μg of supernatant (total protein extract) were diluted in 100 μl of 1×PBS and immobilized in Maxisorp F96 NUN-IMMUNO Plate (Nunc MaxiSorp flat-bottom, Nunc, cat: 442404) at room temperature overnight. Plates were washed twice with Wash Buffer (PBS1×+0.005% tween 20) and saturated for 1 hour at room temperature with 300 μL of 1×PBS containing 10% FCS. After washing twice with Wash Buffer, the plates were incubated for two hours at room temperature in the presence of anti-acetylated-α-tubulin antibody (Monoclonal Anti-acetylated-tubulin clone 6-11B-1, mouse ascites fluid, Sigma, cat: T6793), 100 μl/well diluted 1:1000 in 1×PBS containing 10% FCS) or with total anti-α-tubulin antibody (Monoclonal Anti-alpha-tubulin produced in mouse, Sigma, cat: T6074). Following washing of the pates 5 times with Wash Buffer the secondary antibody conjugated with the enzyme HRP (Goat anti-Mouse IgG, IgM, IgA (H+L), Thermo Fisher Scientific, cat: A10668), diluted 1:1000 in 1×PBS+10% FBS was added at the volume of 100 μl/well.
After washing 4 times, 100 μl/well of TMB substrate kit was added for 10 minutes at room temperature in the dark. The reaction was stopped by adding 50 μl of 2N H2SO4. The plates were read at Multiskan Spectrum spectrophotometer at a wavelength of 450 nm.
The degree of acetylation was calculated by dividing the absorbance obtained for acetylated α-tubulin by the absorbance of total tubulin.
The results of tubulin acetylation, expressed as fold increase of ratio of acetylated α-tubulin/total α-tubulin, of each sample relative to the control sample (untreated) are summarized in table 6.

[13] = Stability in rat plasma; conditions: after 4 hours, 37° C.
[14] = Stability in human plasma; conditions: after 4 hours, 37° C.
[15] = Stability to Phase I metabolism in rat S9 liver fraction; conditions: after 90 minutes, 37° C.
[16] = Stability to Phase I metabolism in human S9 liver fraction; conditions: after 90 minutes, 37° C.

With Nc1nc2ccc(-c3cn(Cc4ccc(-c5nnc(C(F)F)o5)cn4)nn3)cc2s1 [Compd. 1, 6-(1-((5-(5-(difluoromethyl)-1,3,4-oxadiazol-2-yl)pyridin-2-yl)methyl)-1H-1,2,3-triazol-4-yl)benzo[d]thiazol-2-amine] the IC50 [1] was 0.007 µM, the IC50 [2] was over 200 µM and the IC50 [3] was over 30 µM. The IC50 [4] was over 30 µM, the IC50 [5] was over 30 µM and the IC50 [6] was over 30 µM. For the same compound, the IC50 [7] was over 30 µM, the IC50 [8] was over 200 µM and the IC50 [9] was over 30 µM. For the same compound, the IC50 [10] was over 30 µM, the IC50 [11] was over 30 µM and the fold induction at 1 µM [12] was 25. The “residual percentage in RAT PLASMA” value [13] was 79%, the “residual percentage in HUMAN PLASMA” value [14] was 85% and the “residual percentage in RAT S9 FRACTION” value [15] was 96%. The “residual percentage in HUMAN S9 FRACTION” value [16] was 93%.

For Nc1nc2cc(-c3cn(Cc4ccc(-c5nnc(C(F)F)o5)cn4)nn3)ccc2s1 [Compd. 3, 5-(1-((5-(5-(difluoromethyl)-1,3,4-oxadiazol-2-yl)pyridin-2-yl)methyl)-1H-1,2,3-triazol-4-yl)benzo[d]thiazol-2-amine], the IC50 [1] was 0.01 µM, the IC50 [2] was over 200 µM and the IC50 [3] was over 30 µM. The IC50 [4] was over 30 µM, the IC50 [5] was over 30 µM and the IC50 [6] was over 30 µM. It also gave an IC50 [7] of over 30 µM, an IC50 [8] of over 200 µM and an IC50 [9] of 22.5 µM. It also gave an IC50 [10] of over 30 µM, an IC50 [11] of over 30 µM and a fold induction at 1 µM [12] of 13. For the same compound, the “residual percentage in RAT PLASMA” value [13] was 80%, the “residual percentage in HUMAN PLASMA” value [14] was 70% and the “residual percentage in RAT S9 FRACTION” value [15] was 90%. For the same compound, the “residual percentage in HUMAN S9 FRACTION” value [16] was 97%.

For Nc1nc2cc(-c3cn(Cc4ccc(-c5nnc(C(F)F)o5)cc4)nn3)ccc2[nH]1 [Compd. 8, 5-(1-(4-(5-(difluoromethyl)-1,3,4-oxadiazol-2-yl)benzyl)-1H-1,2,3-triazol-4-yl)-1H-benzo[d]imidazol-2-amine], the IC50 [1] was 0.014 µM, the IC50 [2] was over 200 µM and the IC50 [3] was over 30 µM. The IC50 [4] was over 30 µM, the IC50 [5] was over 30 µM and the IC50 [6] was over 30 µM. For the same compound, the IC50 [7] was over 30 µM, the IC50 [8] was over 200 µM and the IC50 [9] was over 30 µM. For the same compound, the IC50 [10] was over 30 µM, the IC50 [11] was over 30 µM and the fold induction at 1 µM [12] was 10. The “residual percentage in RAT PLASMA” value [13] was 76%, the “residual percentage in HUMAN PLASMA” value [14] was 99% and the “residual percentage in RAT S9 FRACTION” value [15] was 94%. For the same compound, the “residual percentage in HUMAN S9 FRACTION” value [16] was 95%.

FC(F)c1nnc(-c2ccc(Cn3cc(-c4ccc5nc(Cl)[nH]c5c4)nn3)nc2)o1 [Compd. 9, 2-(6-((4-(2-chloro-1H-benzo[d]imidazol-6-yl)-1H-1,2,3-triazol-1-yl)methyl)pyridin-3-yl)-5-(difluoromethyl)-1,3,4-oxadiazole] showed an IC50 [1] of 0.015 µM, an IC50 [2] of over 200 µM and an IC50 [3] of over 30 µM. For the same compound, the IC50 [4] was over 30 µM, the IC50 [5] was 5.01 µM and the IC50 [6] was 1.51 µM. The IC50 [7] was 3.08 µM, the IC50 [8] was 1.41 µM and the IC50 [9] was 0.971 µM. The IC50 [10] was over 30 µM, the IC50 [11] was over 30 µM and the fold induction at 1 µM [12] was 17. The “residual percentage in RAT PLASMA” value [13] was 87%, the “residual percentage in HUMAN PLASMA” value [14] was 59% and the “residual percentage in RAT S9 FRACTION” value [15] was 90%. The “residual percentage in HUMAN S9 FRACTION” value [16] was 83%.

Cn1c(N)nc2cc(-c3cn(Cc4ccc(-c5nnc(C(F)F)o5)cn4)nn3)ccc21 [Compd. 17, 5-(1-((5-(5-(difluoromethyl)-1,3,4-oxadiazol-2-yl)pyridin-2-yl)methyl)-1H-1,2,3-triazol-4-yl)-1-methyl-1H-benzo[d]imidazol-2-amine] showed an IC50 [1] of 0.008 µM, an IC50 [2] of over 200 µM and an IC50 [3] of over 30 µM. The IC50 [4] was over 30 µM, the IC50 [5] was over 30 µM and the IC50 [6] was over 30 µM. For the same compound, the IC50 [7] was over 30 µM, the IC50 [8] was over 200 µM and the IC50 [9] was over 30 µM. For the same compound, the IC50 [10] was over 30 µM, the IC50 [11] was over 30 µM and the fold induction at 1 µM [12] was 32. The “residual percentage in RAT PLASMA” value [13] was 85%, the “residual percentage in HUMAN PLASMA” value [14] was 82% and the “residual percentage in RAT S9 FRACTION” value [15] was 99%. For the same compound, the “residual percentage in HUMAN S9 FRACTION” value [16] was 84%.

With Cn1c(N)nc2cc(-c3cn(Cc4ccc(-c5nnc(C(F)F)o5)cc4)nn3)ccc21 [Compd. 23, 5-(1-(4-(5-(difluoromethyl)-1,3,4-oxadiazol-2-yl)benzyl)-1H-1,2,3-triazol-4-yl)-1-methyl-1H-benzo[d]imidazol-2-amine] the IC50 [1] was 0.013 µM, the IC50 [2] was 30.3 µM and the IC50 [3] was over 30 µM. For the same compound, the IC50 [4] was 26.5 µM, the IC50 [5] was over 30 µM and the IC50 [6] was over 30 µM. For the same compound, the IC50 [7] was over 30 µM, the IC50 [8] was 0.565 µM and the IC50 [9] was over 30 µM. The IC50 [10] was over 30 µM, the IC50 [11] was over 30 µM and the fold induction at 1 µM [12] was 31. For the same compound, the “residual percentage in RAT PLASMA” value [13] was 92%, the “residual percentage in HUMAN PLASMA” value [14] was 88% and the “residual percentage in RAT S9 FRACTION” value [15] was 96%. The “residual percentage in HUMAN S9 FRACTION” value [16] was 88%.
